The values that follow come from ChEMBL document CHEMBL2069165, “Synthesis and evaluation of substituted hexahydronaphthalenes as novel inhibitors of the Mcl-1/BimBH3 interaction” (Bioorg Med Chem Lett, 2012).

Series [1] has as its target T1, Induced myeloid leukemia cell differentiation protein Mcl-1/Bcl-2-like protein 11 (Homo sapiens) (UniProt Q07820+O43521). Briefly: Inhibition of GST-Mcl-1/BH3 domain of Bim interaction at 25 uM after 1 hr by ELISA. The class given is protein assay. (In general: In an ELISA, binding on a coated surface is turned into a signal by an enzyme label.)
Series [2] deals with Induced myeloid leukemia cell differentiation protein Mcl-1/Bcl-2-like protein 11 (Homo sapiens, UniProt Q07820). The experiment in a line: Inhibition of GST-Mcl-1/BH3 domain of Bim interaction after 1 hr by ELISA. The series is classed as protein assay.
The target of series [3] is T1, Induced myeloid leukemia cell differentiation protein Mcl-1/Bcl-2-like protein 11 (Homo sapiens). Briefly: Inhibition of GST-Mcl-1/BH3 domain of Bim interaction in human MDA-MB-468 cells at 25 uM after 24 hrs by Western blotting relative to control. The series is classed as cell-based. In general terms: Immunoblotting shows a protein as a band on a membrane.
Series [4] has the same target. Briefly: Inhibition of GST-Mcl-1/BH3 domain of Bim interaction in human MDA-MB-468 cells at 50 uM after 24 hrs by Western blotting relative to control. The class given is cell-based.
The next series relates to MDA-MB-468. Briefly: Growth inhibition of human MDA-MB-468 cells at 100 uM after 72 to 120 hrs by MTT assay. The class given is functional. The settings on record: read-out: GI.
The nature of series [5]: Solubility of the compound in human MDA-MB-468 cell culture medium at >100 uM. The series is classed as physicochemical.

T1 sequence (O43521 whole entry, looked up, the tested form may be a part): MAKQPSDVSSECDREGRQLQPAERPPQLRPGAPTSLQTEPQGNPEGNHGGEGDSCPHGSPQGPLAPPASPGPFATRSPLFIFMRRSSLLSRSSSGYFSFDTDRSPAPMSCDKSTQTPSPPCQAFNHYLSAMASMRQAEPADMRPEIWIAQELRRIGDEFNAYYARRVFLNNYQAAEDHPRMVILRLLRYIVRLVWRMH
T1 sequence (Q07820 whole entry, looked up, the tested form may be a part): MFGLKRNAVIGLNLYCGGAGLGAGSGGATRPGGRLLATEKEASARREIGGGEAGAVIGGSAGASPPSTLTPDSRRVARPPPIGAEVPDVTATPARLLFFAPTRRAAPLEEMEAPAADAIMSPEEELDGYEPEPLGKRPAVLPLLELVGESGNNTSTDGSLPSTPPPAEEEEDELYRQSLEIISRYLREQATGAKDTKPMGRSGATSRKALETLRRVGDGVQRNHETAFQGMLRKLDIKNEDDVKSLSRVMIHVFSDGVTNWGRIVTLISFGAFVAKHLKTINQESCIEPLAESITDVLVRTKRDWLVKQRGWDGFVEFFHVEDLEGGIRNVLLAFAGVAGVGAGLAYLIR
Induced myeloid leukemia cell differentiation protein Mcl-1/Bcl-2-like protein 11, sequence (Q07820 whole entry, the tested form may be a part): as the sequence (Q07820 whole entry, looked up, the tested form may be a part) above
Induced myeloid leukemia cell differentiation protein Mcl-1/Bcl-2-like protein 11, sequence (O43521 whole entry, further chain, the tested form may be a part): as the sequence (O43521 whole entry, looked up, the tested form may be a part) above

As to `COCOC[C@@]12C=C[C@@H](C(C)(C)C(=O)OCc3ccccc3)C[C@@H]1C=C(C)C[C@@H]2OCc1ccccc1`, the inhibition (in general, the drop in the measured response relative to a control, in per cent) in series [1] was determined as 64.9%. In addition, the midpoint of inhibition in series [2], the IC50, lay at 13.1 µM.
For `C=C(C)CNC(=O)C(C)(C)[C@@H]1C=C[C@@]2(COCOC)[C@@H](O)CC(C)=C[C@H]2C1`, the inhibition in series [1] turned out to be 17.1%.
Still for that read-out and setting: to `C=C(C)COC(=O)C(C)(C)[C@@H]1C=C[C@@]2(COCOC)[C@@H](OCC(=C)C)CC(C)=C[C@H]2C1` belongs 31.2%.
For `CC(C)Cc1cc(-c2ccc(-c3ccc(CCC(=O)O)cc3CC(C)C)cc2Cc2ccccc2)ccc1OCC(=O)O`, the inhibition in series [3] turned out to be 61.9%; in series [4] it was 55.7%.
For `COC(=O)C(C)(C)[C@@H]1C=C[C@@]2(CO)[C@@H](O)CC(C)=C[C@H]2C1`, in series [1], the inhibition turned out to be 25%.
On to `COCOC[C@@]12C=C[C@@H](C(C)(C)C(=O)O)C[C@@H]1C=C(C)C[C@@H]2O`, for which, in series [1], the inhibition turned out to be 18.2%.
Still for that read-out and setting: under `COCOC[C@@]12C=C[C@@H](C(C)(C)C(=O)OC)C[C@@H]1C=C(C)C[C@@H]2OC(=O)NC1CCCCC1` stands 34.8%.
As to `O=C(O)CCc1ccc(-c2ccc(-c3ccc(OCC(=O)O)cc3)cc2)cc1`, the figures for the inhibition in series [3] and in series [4] were 96.9% and 107%, respectively.
Take `C=C(C)CNC(=O)C(C)(C)C1C=CC2(COCOC)C(C=C(C)CC2OC(=O)Nc2cccc(Cl)c2)C1` (racemic): the inhibition in series [1] stood at 74.3%; in series [3], 70.6%; in series [4], 46.4%. Further, the inhibition of growth at 100 µM in the series on MDA-MB-468 came out at 80%. The solubility entry in series [5] is listed as “Insoluble”. Besides, in series [2], the IC50 (commonly the concentration needed to halve the response being measured) came out at 8.3 µM.
`COCOC[C@@]12C=C[C@@H](C(C)(C)C(=O)NCc3ccc(Br)cc3)C[C@@H]1C=C(C)C[C@@H]2OC(=O)NC1CCCCC1` (relative stereo): the inhibition in series [1] was 64.4%. The same compound gave a concentration for half-maximal inhibition (IC50) in series [2] of 17 µM.
For `C=C(C)CNC(=O)C(C)(C)[C@@H]1C=C[C@@]2(COCOC)[C@@H](OC(=O)NC(C)C)CC(C)=C[C@H]2C1` (relative stereo), in series [1], the inhibition was 31.2%.
Still for that read-out and setting: to `C=C(C)CNC(=O)C(C)(C)[C@@H]1C=C[C@@]2(COCOC)[C@@H](OC(=O)NC3CCCC3)CC(C)=C[C@H]2C1` (relative stereo) belongs 19.7%; to `C=C(C)CNC(=O)C(C)(C)[C@@H]1C=C[C@@]2(COCOC)[C@@H](OC(=O)NC3CCCCC3)CC(C)=C[C@H]2C1` (relative stereo), 53.8%.
On the same count and under the same terms, to `C=C(C)CNC(=O)C(C)(C)[C@@H]1C=C[C@@]2(COCOC)[C@@H](OC(=O)NCc3ccccc3)CC(C)=C[C@H]2C1` (relative stereo) belongs 40.3%; to `C=C(C)CNC(=O)C(C)(C)[C@@H]1C=C[C@@]2(COCOC)[C@@H](OC(=O)Nc3ccccc3)CC(C)=C[C@H]2C1` (relative stereo), 61.8%.
In the case of `COCOC[C@@]12C=C[C@@H](C(C)(C)C(=O)N3CCOCC3)C[C@@H]1C=C(C)C[C@@H]2OC(=O)NC1CCCCC1` (relative stereo), in series [1], the inhibition was 26.5%.
Consider `COCOC[C@@]12C=C[C@@H](C(C)(C)C(=O)NCc3ccccc3)C[C@@H]1C=C(C)C[C@@H]2OC(=O)NC1CCCCC1` (relative stereo), for which the inhibition in series [1] is 53.9%.
